{"source": "patent US6706663B2", "about": "“Herbicidal 3-heterocyclic substituted benzisothiazole and benzisoxazole compounds” (Wyeth, priority 2000, dated 2004)", "key": {"[1]": {"system": "ECHCG (Echinochloa crus-galli)", "assay": "Postemergence herbicidal evaluation", "assay_type": "in vivo, (L.) Beau", "details": "postemergence", "procedure,_shortened": "(§1)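 Visual 0–9 injury scores versus control plants, covering stand, vigour, malformation, size, chlorosis and general appearance, taken four to five weeks post-spray and averaged over replicate tests. Plants were sprayed at roughly two weeks old and held on greenhouse benches.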"}, "[2]": {"system": "GLXMAW (Soybean, Williams)", "assay": "Postemergence herbicidal evaluation", "assay_type": "in vivo, Glycine max, (L.) Merr. cv Williams", "details": "postemergence", "procedure,_shortened": "as §1"}, "[3]": {"system": "ZEAMX (Corn, Field)", "assay": "Postemergence herbicidal evaluation", "assay_type": "in vivo, Zea mays, L.", "details": "postemergence", "procedure,_shortened": "as §1"}, "[4]": {"system": "ABUTH (Abutilon theophrasti)", "assay": "Preemergence herbicidal evaluation", "assay_type": "in vivo, Medic.", "details": "rated 4-5 weeks after treatment"}, "[5]": {"system": "IPOHE (Ipomoea hederacea)", "assay": "Preemergence herbicidal evaluation", "assay_type": "in vivo, (L.) Jacq.", "details": "rated 4-5 weeks after treatment"}, "[6]": {"system": "GLXMAW (Soybean, Williams)", "assay": "Preemergence herbicidal evaluation", "assay_type": "in vivo, Glycine max, (L.) Merr. cv Williams", "details": "rated 4-5 weeks after treatment"}, "[7]": {"system": "TRZAWR (Wheat, Winter, cv Riband)", "assay": "Preemergence herbicidal evaluation", "assay_type": "in vivo, Triticum aestivum", "details": "rated 4-5 weeks after treatment", "procedure,_shortened": "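Visual 0-9 rating versus untreated control, taken four to five weeks post-treatment, scoring stand, vigor, malformation, size, chlorosis and overall appearance. Compound applied as aqueous acetone spray to freshly seeded soil cups, then kept under standard greenhouse care.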"}, "[8]": {"system": "ZEAMX (Corn, Field)", "assay": "Preemergence herbicidal evaluation", "assay_type": "in vivo, Zea mays, L.", "details": "rated 4-5 weeks after treatment"}, "[9]": {"system": "ECHORC (Echinochloa oryzoides)", "assay": "Flooded paddy, preemergence weed control", "assay_type": "in vivo, Echinochloa oryzoides (Ard.) Fritsch.", "details": "rated 3-4 weeks after treatment, 0-9 rating scale", "procedure,_shortened": "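Seeds or propagating organs were sown in the top 0.5 cm of silt loam soil, flooded, and the water kept 1.5 to 3 cm above the soil surface throughout. Plants were grown in the greenhouse and rated visually on a 0-9 scale against a control.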"}, "[10]": {"system": "ORYSAT (Rice, Tebonnet)", "assay": "Flooded paddy, post-transplant rice tolerance", "assay_type": "in vivo, Oryza sativa, (L.) Tebonnet", "details": "flooded paddy, post-transplant rice, rated 3-4 weeks after treatment, 0-9 rating scale", "procedure,_shortened": "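Visual 0–9 injury rating against a control, covering stand, vigor, malformation, size, chlorosis and overall appearance. Treatment was post-transplant onto flooded containers (water 1.5–3 cm deep, silt loam) holding two ten-day-old cv. Tebonnet seedlings, maintained on greenhouse benches.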"}, "[11]": {"system": "ECHORC (Echinochloa oryzoides)", "assay": "Flooded paddy, postemergence weed control", "assay_type": "in vivo, Echinochloa oryzoides (Ard.) Fritsch.", "details": "postemergence weeds, rated 3-4 weeks after treatment", "excerpt": "(§2) Results of herbicide evaluation are expressed on a rating scale (0-9). The scale is based upon a visual observation of plant stand, vigor, malformation, size, chlorosis and overall plant appearance as compared with a control.\n(§3) Plastic containers containing weeds which are 3 to 5 cm tall and rice seedlings at the 1.5 to 2.5 leaf stage are flooded with water. The water is maintained at 1.5 to 3 cm above the soil surface for the duration of the experiment. Test compounds are applied as aqueous/acetone mixtures 50/50 v/v directly into the flood water to provide the equivalent of about 0.0320 to 0.2500 kg/ha of active ingredient. The treated containers are placed on greenhouse benches and cared for in accordance with conventional greenhouse procedures. Three to four weeks after treatment, the test is terminated and each container is examined and herbicidal effect rated according to the rating system provided in Example 87. The compounds evaluated are identified in Example 87 and plant species used are identified in Example 89."}, "[12]": {"system": "CYPSE (Cyperus serotinus)", "assay": "Flooded paddy, postemergence weed control", "assay_type": "in vivo, Rottb.", "details": "postemergence weeds, rated 3-4 weeks after treatment", "excerpt": "as §2, §3"}, "[13]": {"system": "MOOVA (Monochoria vaginalis)", "assay": "Flooded paddy, postemergence weed control", "assay_type": "in vivo, Presl.", "details": "postemergence weeds, rated 3-4 weeks after treatment", "excerpt": "as §2, §3"}, "[14]": {"system": "SAGPY (Sagittaria pygmaea)", "assay": "Flooded paddy, postemergence weed control", "assay_type": "in vivo, L.", "details": "postemergence weeds, rated 3-4 weeks after treatment", "excerpt": "as §2, §3"}, "[15]": {"system": "ORYSAT (Rice, Tebonnet)", "assay": "Flooded paddy, post-transplant and postemergence rice tolerance", "assay_type": "in vivo, Oryza sativa, (L.) Tebonnet", "details": "post-transplant rice, rated 3-4 weeks after treatment", "excerpt": "as §2, §3"}, "[16]": {"system": "GLXMA (Soybean)", "assay": "Preemergence herbicidal evaluation", "assay_type": "in vivo, Glycine max, (L.) Merr.", "details": "preemergence, rated 4-5 weeks after treatment"}, "[17]": {"details": "preemergence, rate 0.0620 kg/ha"}, "[18]": {"details": "preemergence, rate 0.1250 kg/ha"}, "[19]": {"details": "preemergence, rate 0.2500 kg/ha"}}, "data": [{"smiles": "Cn1c(C(F)(F)F)cc(=O)n(-c2ccc3snc(C4OC(C)(C)C(C)(C)O4)c3c2)c1=O", "note": "[Compound 56, 1-methyl-3-[3-(4,4,5,5-tetramethyl-1,3-dioxolan-2-yl)-1,2-benzisothiazol-5-yl]-6-(trifluoromethyl)uracil]", "values": [{"measurement": "ECHCG herbicidal rating", "setting": "[1]; rate 0.0320 kg/ha", "result": 2.0}, {"measurement": "ECHCG herbicidal rating", "setting": "[1]; rate 0.0620 kg/ha", "result": 4.0}, {"measurement": "GLXMAW herbicidal rating", "setting": "[2]; rate 0.0320 kg/ha", "result": 6.0}, {"measurement": "GLXMAW herbicidal rating", "setting": "[2]; rate 0.0620 kg/ha", "result": 6.5}, {"measurement": "ZEAMX herbicidal rating", "setting": "[3]; rate 0.0320 kg/ha", "result": 5.0}, {"measurement": "ZEAMX herbicidal rating", "setting": "[3]; rate 0.0620 kg/ha", "result": 5.5}, {"measurement": "Preemergence herbicidal rating ABUTH", "setting": "[4]; Rate 0.0620 kg/ha", "result": 9.0}, {"measurement": "Preemergence herbicidal rating ABUTH", "setting": "[4]; Rate 0.1250 kg/ha", "result": 9.0}, {"measurement": "Preemergence herbicidal rating ABUTH", "setting": "[4]; Rate 0.2500 kg/ha", "result": 9.0}, {"measurement": "Preemergence herbicidal rating IPOHE", "setting": "[5]; Rate 0.0620 kg/ha", "result": 7.5}, {"measurement": "Preemergence herbicidal rating IPOHE", "setting": "[5]; Rate 0.1250 kg/ha", "result": 7.5}, {"measurement": "Preemergence herbicidal rating IPOHE", "setting": "[5]; Rate 0.2500 kg/ha", "result": 9.0}, {"measurement": "Preemergence herbicidal rating GLXMAW", "setting": "[6]; Rate 0.0620 kg/ha", "result": 7.5}, {"measurement": "Preemergence herbicidal rating GLXMAW", "setting": "[6]; Rate 0.1250 kg/ha", "result": 9.0}, {"measurement": "Preemergence herbicidal rating GLXMAW", "setting": "[6]; Rate 0.2500 kg/ha", "result": 9.0}, {"measurement": "Preemergence herbicidal rating TRZAWR", "setting": "[7]; Rate 0.0620 kg/ha", "result": 6.0}, {"measurement": "Preemergence herbicidal rating TRZAWR", "setting": "[7]; Rate 0.1250 kg/ha", "result": 6.0}, {"measurement": "Preemergence herbicidal rating TRZAWR", "setting": "[7]; Rate 0.2500 kg/ha", "result": 7.0}, {"measurement": "Preemergence herbicidal rating ZEAMX", "setting": "[8]; Rate 0.0620 kg/ha", "result": 7.0}, {"measurement": "Preemergence herbicidal rating ZEAMX", "setting": "[8]; Rate 0.1250 kg/ha", "result": 7.0}, {"measurement": "Preemergence herbicidal rating ZEAMX", "setting": "[8]; Rate 0.2500 kg/ha", "result": 8.0}, {"measurement": "herbicidal rating, ECHORC", "setting": "[9]; rate 0.0080 kg/ha", "result": 9.0}, {"measurement": "herbicidal rating, ECHORC", "setting": "[9]; rate 0.0320 kg/ha", "result": 9.0}, {"measurement": "herbicidal rating, ECHORC", "setting": "[9]; rate 0.1250 kg/ha", "result": 9.0}, {"measurement": "herbicidal rating, ORYSAT (rice tolerance)", "setting": "[10]; rate 0.0080 kg/ha", "result": 1.0}, {"measurement": "herbicidal rating, ORYSAT (rice tolerance)", "setting": "[10]; rate 0.0320 kg/ha", "result": 4.3}, {"measurement": "herbicidal rating, ORYSAT (rice tolerance)", "setting": "[10]; rate 0.1250 kg/ha", "result": 8.0}, {"measurement": "herbicide rating (0-9) ECHORC", "setting": "[11]; 0.0320 kg/ha into flood water", "result": 9.0}, {"measurement": "herbicide rating (0-9) ECHORC", "setting": "[11]; 0.0620 kg/ha into flood water", "result": 9.0}, {"measurement": "herbicide rating (0-9) ECHORC", "setting": "[11]; 0.1250 kg/ha into flood water", "result": 9.0}, {"measurement": "herbicide rating (0-9) CYPSE", "setting": "[12]; 0.0620 kg/ha into flood water", "result": 0.0}, {"measurement": "herbicide rating (0-9) CYPSE", "setting": "[12]; 0.1250 kg/ha into flood water", "result": 9.0}, {"measurement": "herbicide rating (0-9) MOOVA", "setting": "[13]; 0.0320 kg/ha into flood water", "result": 2.0}, {"measurement": "herbicide rating (0-9) MOOVA", "setting": "[13]; 0.0620 kg/ha into flood water", "result": 4.0}, {"measurement": "herbicide rating (0-9) MOOVA", "setting": "[13]; 0.1250 kg/ha into flood water", "result": 7.0}, {"measurement": "herbicide rating (0-9) SAGPY", "setting": "[14]; 0.0320 kg/ha into flood water", "result": 0.0}, {"measurement": "herbicide rating (0-9) SAGPY", "setting": "[14]; 0.0620 kg/ha into flood water", "result": 0.0}, {"measurement": "herbicide rating (0-9) SAGPY", "setting": "[14]; 0.1250 kg/ha into flood water", "result": 2.0}, {"measurement": "herbicide rating (0-9) ORYSAT (rice tolerance)", "setting": "[15]; 0.0320 kg/ha into flood water", "result": 7.0}, {"measurement": "herbicide rating (0-9) ORYSAT (rice tolerance)", "setting": "[15]; 0.0620 kg/ha into flood water", "result": 7.0}, {"measurement": "herbicide rating (0-9) ORYSAT (rice tolerance)", "setting": "[15]; 0.1250 kg/ha into flood water", "result": 9.0}]}, {"smiles": "Cn1c(C(F)(F)F)cc(=O)n(-c2ccc3snc(C4OCC(C[S+](C)[O-])O4)c3c2)c1=O", "note": "(stereo not drawn) [Compound 88, 1-methyl-3-[3-[4-[(methylsulfinyl)methyl]-1,3-dioxolan-2-yl]-1,2-benzisothiazol-5-yl]-6-(trifluoromethyl)uracil]", "values": [{"measurement": "ECHCG herbicidal rating", "setting": "[1]; rate 0.0320 kg/ha", "result": 5.0}, {"measurement": "ECHCG herbicidal rating", "setting": "[1]; rate 0.0620 kg/ha", "result": 5.0}, {"measurement": "GLXMAW herbicidal rating", "setting": "[2]; rate 0.0320 kg/ha", "result": 9.0}, {"measurement": "GLXMAW herbicidal rating", "setting": "[2]; rate 0.0620 kg/ha", "result": 9.0}, {"measurement": "ZEAMX herbicidal rating", "setting": "[3]; rate 0.0320 kg/ha", "result": 4.0}, {"measurement": "ZEAMX herbicidal rating", "setting": "[3]; rate 0.0620 kg/ha", "result": 5.0}, {"measurement": "Preemergence herbicidal rating ABUTH", "setting": "[4]; [17]", "result": 9.0}, {"measurement": "Preemergence herbicidal rating ABUTH", "setting": "[4]; [18]", "result": 9.0}, {"measurement": "Preemergence herbicidal rating ABUTH", "setting": "[4]; [19]", "result": 9.0}, {"measurement": "Preemergence herbicidal rating IPOHE", "setting": "[5]; [17]", "result": 6.0}, {"measurement": "Preemergence herbicidal rating IPOHE", "setting": "[5]; [18]", "result": 7.5}, {"measurement": "Preemergence herbicidal rating IPOHE", "setting": "[5]; [19]", "result": 9.0}, {"measurement": "Preemergence herbicidal rating GLXMAW", "setting": "[6]; [17]", "result": 9.0}, {"measurement": "Preemergence herbicidal rating GLXMAW", "setting": "[6]; [18]", "result": 9.0}, {"measurement": "Preemergence herbicidal rating GLXMAW", "setting": "[6]; [19]", "result": 9.0}, {"measurement": "Preemergence herbicidal rating GLXMA", "setting": "[16]; rate 0.0620 kg/ha", "result": 9.0}, {"measurement": "Preemergence herbicidal rating GLXMA", "setting": "[16]; rate 0.1250 kg/ha", "result": 9.0}, {"measurement": "Preemergence herbicidal rating GLXMA", "setting": "[16]; rate 0.2500 kg/ha", "result": 9.0}, {"measurement": "Preemergence herbicidal rating ZEAMX", "setting": "[8]; [17]", "result": 3.5}, {"measurement": "Preemergence herbicidal rating ZEAMX", "setting": "[8]; [18]", "result": 6.0}, {"measurement": "Preemergence herbicidal rating ZEAMX", "setting": "[8]; [19]", "result": 7.0}, {"measurement": "ECHORC herbicidal rating", "setting": "[9]; rate 0.0320 kg/ha", "result": 0.0}, {"measurement": "ECHORC herbicidal rating", "setting": "[9]; rate 0.1250 kg/ha", "result": 0.0}, {"measurement": "ORYSAT herbicidal rating (transplanted rice tolerance)", "setting": "[10]; rate 0.0320 kg/ha", "result": 0.0}, {"measurement": "ORYSAT herbicidal rating (transplanted rice tolerance)", "setting": "[10]; rate 0.1250 kg/ha", "result": 5.0}]}]}
